In ChEMBL document CHEMBL1201862, “PubChem BioAssay data set” (2004):
Activity calls are given as the source filed them.

Legend:
[1] = target: Sphingosine 1-phosphate receptor 2 (Homo sapiens, UniProt O95136); experiment: Dose Response Cell Based Assay for Antagonists of the S1P2 Receptor. [Related pubchem assays: 856, 736 ]; type: functional
Bcl-2-like protein 10 = Bcl-2-like protein 10 (Homo sapiens, UniProt Q9HD36); experiment: Bcl-B/TR3 peptide binding disruption – biochemical, fluorescence polarization, FITC-TR3 peptide, selectivity assay for Bfl-1 inhibitor project, primary screen (AID 748);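 further: fluorescence polarization from a fluorescein-labelled TR3 peptide binding purified Bcl-B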
[2] = system: Streptococcus sp. 'group A'; experiment: Streptococcus pyogenes SK(-)GAS viability under kanamycin – luminescence, BacTiterGlo, confirmation, counter-screen for streptokinase expression inhibitor project, dose response (AID 1900); type: functional, organism-based
BJ [3] = experiment: BJ-TERT fibroblast viability loss – cell-based, RAS-independent, luminescence, dose response (AID 1933); type: functional; conditions: Homo sapiens
Streptokinase A = target: T1, Streptokinase A (Streptococcus pyogenes serotype M1, UniProt P10520); experiment: viability-normalized secreted streptokinase activity reduction – plasminogen activation absorbance, OD405, dose response (AID 1914); type: functional, Streptococcus pyogenes M1 GAS;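 further: secreted streptokinase activity via plasminogen activation per viability signal from cell pellet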
T1 sequence (P10520 whole entry): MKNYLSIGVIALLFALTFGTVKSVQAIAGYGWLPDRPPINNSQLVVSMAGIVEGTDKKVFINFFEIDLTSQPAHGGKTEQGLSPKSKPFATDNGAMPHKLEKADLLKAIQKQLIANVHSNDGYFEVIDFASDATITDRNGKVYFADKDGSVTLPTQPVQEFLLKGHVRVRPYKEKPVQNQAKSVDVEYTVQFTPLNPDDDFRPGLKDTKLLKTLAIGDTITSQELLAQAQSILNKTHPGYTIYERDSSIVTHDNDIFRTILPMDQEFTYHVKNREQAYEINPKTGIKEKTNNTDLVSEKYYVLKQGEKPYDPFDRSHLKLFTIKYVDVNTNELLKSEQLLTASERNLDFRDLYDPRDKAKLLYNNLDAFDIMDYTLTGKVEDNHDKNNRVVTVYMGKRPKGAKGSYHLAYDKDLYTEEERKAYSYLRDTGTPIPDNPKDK

BJ [4] = experiment: cells; type: functional, cell-based; conditions: Homo sapiens
BJ [5] = experiment: BJ-TERT-LT-ST fibroblast viability loss – cell-based, RAS-independent, luminescence, dose response (AID 1935); type: functional; conditions: Homo sapiens;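 further: BJ fibroblasts immortalized with TERT plus LT and ST oncogenes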
[6] = DRD fibroblast viability loss – cell-based, non-viral oncogenic, luminescence, dose response (AID 1934); type: functional; conditions: Homo sapiens
Streptococcus = experiment: GAS UMAA2166 growth inhibition – luminescence, BacTiterGlo, counter-screen for streptokinase expression inhibitor project, dose response (AID 1915); type: functional, organism-based;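 further: potency for reduction of bacterial viability or growth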
Exodeoxyribonuclease V = Exodeoxyribonuclease V (Escherichia coli (strain K12), UniProt P04993+P07648+P08394); experiment: RecBCD inhibition via phage-restricted bacterial growth – absorbance, V66 E. coli, mutant T4 phage, counter-screen for AddAB inhibitor project, dose response (AID 492957); type: functional, cell-based, Escherichia coli str. K-12 substr. MG1655
[7] = Counterscreen for AddAB inhibitors: absorbance-based bacterial cell-based high throughput dose response assay for inhibitors of bacterial viability. [Related pubchem assays (depositor defined):AID435030, AID449728, AID449731, AID488942, AID488955, AID488956]; type: functional
Cytochrome P450 2C19 = Cytochrome P450 2C19 (Homo sapiens, UniProt P33261); experiment: Cytochrome panel assay with activity outcomes. Panel member name: p450-cyp2c19 Compounds with AC50 equal or less than 10 uM are considered active; type: functional; conditions: read-out: AC50
INS1 = experiment: INS-1E survival protection against cytokine death – cell-based, luminescence, retest, dose response (AID 449756); type: functional; conditions: Rattus norvegicus;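 further: cell death triggered by IL-1 beta plus TNF-alpha plus IFN-gamma mixture; protective hits raise ATP signal compared with cytokine alone wells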
Cytochrome P450 1A2 = target: T2, Cytochrome P450 1A2 (Homo sapiens, UniProt P05177);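 further: PubChem cytochrome P450 panel assay, CYP1A2 panel member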
T2 sequence (P05177 whole entry): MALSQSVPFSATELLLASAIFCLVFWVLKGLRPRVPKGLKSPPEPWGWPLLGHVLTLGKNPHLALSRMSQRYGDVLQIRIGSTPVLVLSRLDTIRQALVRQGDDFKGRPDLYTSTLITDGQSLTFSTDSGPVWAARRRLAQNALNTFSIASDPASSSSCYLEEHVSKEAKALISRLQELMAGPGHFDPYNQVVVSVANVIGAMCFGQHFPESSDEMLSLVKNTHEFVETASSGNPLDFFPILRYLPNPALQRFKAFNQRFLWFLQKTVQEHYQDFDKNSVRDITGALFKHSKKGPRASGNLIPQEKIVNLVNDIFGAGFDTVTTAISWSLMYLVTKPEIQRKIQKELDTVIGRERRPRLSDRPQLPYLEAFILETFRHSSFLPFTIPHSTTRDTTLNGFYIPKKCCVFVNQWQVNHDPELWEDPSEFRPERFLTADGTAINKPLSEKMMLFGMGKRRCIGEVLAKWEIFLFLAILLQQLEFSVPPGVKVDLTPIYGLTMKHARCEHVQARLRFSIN

Cytochrome P450 3A4 = Cytochrome P450 3A4 (Homo sapiens, UniProt P08684);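 further: CYP3A4 tested as one member of a cytochrome P450 panel screen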
[8] = target: T3, G-protein coupled receptor 35 (Homo sapiens, UniProt Q9HC97); experiment: inhibition of zaprinast-stimulated GPR35 beta-arrestin translocation – imaging, U2OS, beta-arrestin-GFP, zaprinast agonist, primary screen (AID 2058); type: functional;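 further: antagonist potency meaning inhibition of agonist-induced arrestin redistribution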
[9] = luciferase reporter signal suppression in cells – H4 neuroglioma cells, luminescence, dose response (AID 1990); type: functional, cell-based
[10] = target: T3, G-protein coupled receptor 35; experiment: SAR Analysis for the identification of Selective Antagonists of ERK1/2 Activity in GPR35-Overexpressing U2OS Cells. [Related pubchem assays: 2079, 2058 ]; type: functional, cell-based
[11] = Luminescence Cell-Based Dose Response HTS to Identify Inhibitors of 5'UTR Stem-Loop Driven Prion Protein mRNA Translation in H4 Neuroglioblastoma Cells. [Related pubchem assays: 1827 (Project Summary), 1813 (Primary HTS)]; type: functional
[12] = alpha-synuclein stem-loop luciferase translation blockers – H4 neuroglioma cells, luminescence, confirmation (AID 1988); type: functional, cell-based
[13] = target: Tyrosine-protein phosphatase non-receptor type 12 (Homo sapiens, UniProt Q05209); experiment: SAR Selectivity Analysis of small molecule inhibitors of PEST using pCAP in a fluorescence assay. [Related pubchem assays (depositor defined):AID1779, AID1784, AID2135]; type: functional
[14] = target: T4, Tyrosine-protein phosphatase non-receptor type 22 (Homo sapiens, UniProt Q9Y2R2); experiment: SAR LYP1 Fluorescent Assay using OMFP substrate for In Vitro dose response studies - Set 3. [Related pubchem assays (depositor defined):AID1779, AID1784, AID2140, AID2686]; type: functional
T4 sequence (Q9Y2R2 whole entry): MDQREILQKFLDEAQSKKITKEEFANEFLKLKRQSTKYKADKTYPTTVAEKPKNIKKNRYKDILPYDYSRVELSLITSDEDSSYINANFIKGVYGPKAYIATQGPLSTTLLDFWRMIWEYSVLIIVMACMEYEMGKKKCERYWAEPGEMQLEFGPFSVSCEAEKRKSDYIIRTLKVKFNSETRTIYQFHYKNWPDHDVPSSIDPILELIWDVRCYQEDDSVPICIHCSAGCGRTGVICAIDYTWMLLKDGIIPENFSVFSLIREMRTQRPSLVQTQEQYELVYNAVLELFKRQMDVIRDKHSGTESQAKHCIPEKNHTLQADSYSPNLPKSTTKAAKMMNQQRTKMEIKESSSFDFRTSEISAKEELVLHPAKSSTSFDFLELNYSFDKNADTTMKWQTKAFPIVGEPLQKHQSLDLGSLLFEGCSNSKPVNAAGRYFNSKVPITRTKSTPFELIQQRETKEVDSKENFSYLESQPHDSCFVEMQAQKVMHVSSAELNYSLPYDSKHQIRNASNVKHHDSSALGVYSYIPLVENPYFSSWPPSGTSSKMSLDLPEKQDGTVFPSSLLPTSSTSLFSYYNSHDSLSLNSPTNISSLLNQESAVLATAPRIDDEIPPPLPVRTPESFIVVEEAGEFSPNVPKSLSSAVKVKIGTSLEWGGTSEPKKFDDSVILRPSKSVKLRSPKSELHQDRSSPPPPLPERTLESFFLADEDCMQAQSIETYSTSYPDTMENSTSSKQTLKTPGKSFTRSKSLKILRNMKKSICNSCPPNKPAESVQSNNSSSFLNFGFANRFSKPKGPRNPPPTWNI

[15] = target: T5, Tyrosine-protein phosphatase non-receptor type 7 (Homo sapiens, UniProt P35236); experiment: inhibition of hematopoietic tyrosine phosphatase HePTP – biochemical, set 2, SAR follow-up (AID 449736); type: functional
T5 sequence (P35236 whole entry): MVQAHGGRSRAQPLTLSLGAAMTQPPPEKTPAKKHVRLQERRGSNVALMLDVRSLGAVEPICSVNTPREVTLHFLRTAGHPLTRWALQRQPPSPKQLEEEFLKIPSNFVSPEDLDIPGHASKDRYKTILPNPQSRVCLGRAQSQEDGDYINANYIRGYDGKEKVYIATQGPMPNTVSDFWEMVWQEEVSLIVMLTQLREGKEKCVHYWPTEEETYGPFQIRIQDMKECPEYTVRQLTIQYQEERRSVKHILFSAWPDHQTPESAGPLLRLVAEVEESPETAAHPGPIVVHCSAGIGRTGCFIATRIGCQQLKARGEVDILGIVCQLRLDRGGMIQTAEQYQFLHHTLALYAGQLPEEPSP

[16] = target: T4, Tyrosine-protein phosphatase non-receptor type 22; experiment: inhibition of lymphoid tyrosine phosphatase LYP – biochemical, pCAP fluorogenic substrate, fluorescence, set 3, SAR follow-up (AID 449727); type: functional
[17] = target: G-protein coupled receptor 55 (Homo sapiens, UniProt Q9Y2T6); experiment: blockers of GPR55 signalling, imaged – imaging, image-based, counter-screen for GPR35 antagonist project, SAR follow-up (AID 2397); type: functional
[18] = target: Lysine-specific demethylase 4A (Homo sapiens, UniProt O75164); experiment: inhibition of JMJD2A H3K9me3 demethylation – biochemical, DELFIA europium, cherry-picked samples, selectivity assay for GASC-1 inhibitor project, dose response (AID 488840)
[19] = target: Ras and Rab interactor 1/Tyrosine-protein kinase ABL1 (Homo sapiens, UniProt P00519+Q13671); type: functional;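 further: biochemical TR-FRET dose-response test measuring inhibition of binding between Rin1 and Abl proteins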

T3 sequence (Q9HC97 whole entry): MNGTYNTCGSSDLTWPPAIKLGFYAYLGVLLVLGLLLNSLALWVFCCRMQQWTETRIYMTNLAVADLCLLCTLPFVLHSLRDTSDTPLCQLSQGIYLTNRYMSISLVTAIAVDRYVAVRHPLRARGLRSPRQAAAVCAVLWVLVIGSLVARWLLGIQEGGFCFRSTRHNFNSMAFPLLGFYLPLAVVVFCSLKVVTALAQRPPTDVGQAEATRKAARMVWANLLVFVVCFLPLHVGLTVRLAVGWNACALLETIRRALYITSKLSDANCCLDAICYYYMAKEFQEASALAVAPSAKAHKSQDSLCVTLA
Chain of Tyrosine-protein phosphatase non-receptor type 12 (Q05209 whole entry): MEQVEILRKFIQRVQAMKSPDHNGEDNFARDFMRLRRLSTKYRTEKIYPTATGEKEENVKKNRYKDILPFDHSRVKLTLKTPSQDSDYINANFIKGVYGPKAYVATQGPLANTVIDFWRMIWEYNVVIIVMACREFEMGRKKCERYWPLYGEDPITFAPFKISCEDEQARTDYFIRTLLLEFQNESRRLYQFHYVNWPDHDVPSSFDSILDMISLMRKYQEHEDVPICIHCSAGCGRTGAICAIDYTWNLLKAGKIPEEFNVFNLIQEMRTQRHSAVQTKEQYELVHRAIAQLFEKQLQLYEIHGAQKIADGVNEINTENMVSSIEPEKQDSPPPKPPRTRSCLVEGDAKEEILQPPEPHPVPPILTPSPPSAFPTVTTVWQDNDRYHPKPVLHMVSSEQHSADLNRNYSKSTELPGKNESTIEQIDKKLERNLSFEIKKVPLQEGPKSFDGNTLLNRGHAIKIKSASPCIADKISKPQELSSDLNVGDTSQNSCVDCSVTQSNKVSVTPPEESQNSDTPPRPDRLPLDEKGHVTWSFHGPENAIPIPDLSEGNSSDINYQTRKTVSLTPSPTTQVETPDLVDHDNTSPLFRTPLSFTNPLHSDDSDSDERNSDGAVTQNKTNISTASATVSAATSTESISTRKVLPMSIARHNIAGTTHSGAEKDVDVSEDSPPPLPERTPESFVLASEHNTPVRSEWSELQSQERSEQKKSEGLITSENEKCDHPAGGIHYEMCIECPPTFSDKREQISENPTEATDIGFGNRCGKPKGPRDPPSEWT
Chain of Lysine-specific demethylase 4A (O75164 whole entry): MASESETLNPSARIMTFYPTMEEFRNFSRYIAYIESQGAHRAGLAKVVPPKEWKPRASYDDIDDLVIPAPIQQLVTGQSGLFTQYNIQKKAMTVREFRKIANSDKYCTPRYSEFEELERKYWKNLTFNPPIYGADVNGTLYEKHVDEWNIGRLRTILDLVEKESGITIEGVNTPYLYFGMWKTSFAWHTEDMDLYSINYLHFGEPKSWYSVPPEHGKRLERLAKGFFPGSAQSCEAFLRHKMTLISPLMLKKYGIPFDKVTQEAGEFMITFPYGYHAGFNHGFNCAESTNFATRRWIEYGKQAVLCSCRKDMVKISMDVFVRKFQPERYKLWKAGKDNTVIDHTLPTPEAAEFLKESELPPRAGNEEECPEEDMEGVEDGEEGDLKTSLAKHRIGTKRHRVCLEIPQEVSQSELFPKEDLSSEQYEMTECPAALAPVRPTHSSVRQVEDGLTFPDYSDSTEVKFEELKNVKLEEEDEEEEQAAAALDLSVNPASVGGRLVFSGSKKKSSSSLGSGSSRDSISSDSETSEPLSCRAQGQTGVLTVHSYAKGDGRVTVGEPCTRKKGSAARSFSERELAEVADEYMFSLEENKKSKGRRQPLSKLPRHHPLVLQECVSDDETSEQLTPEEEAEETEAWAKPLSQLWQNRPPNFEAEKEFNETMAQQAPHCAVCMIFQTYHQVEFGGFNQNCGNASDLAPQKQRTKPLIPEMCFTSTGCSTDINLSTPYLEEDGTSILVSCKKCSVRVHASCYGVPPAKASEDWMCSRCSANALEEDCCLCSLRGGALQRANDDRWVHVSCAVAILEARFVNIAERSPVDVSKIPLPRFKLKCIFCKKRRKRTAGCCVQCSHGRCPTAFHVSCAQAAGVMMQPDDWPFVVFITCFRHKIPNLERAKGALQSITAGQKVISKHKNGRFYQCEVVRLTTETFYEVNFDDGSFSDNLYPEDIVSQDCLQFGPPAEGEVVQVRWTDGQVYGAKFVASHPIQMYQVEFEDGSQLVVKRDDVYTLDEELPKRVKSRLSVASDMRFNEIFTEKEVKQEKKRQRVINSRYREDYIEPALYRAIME
Chain of Cytochrome P450 2C19 (P33261 whole entry): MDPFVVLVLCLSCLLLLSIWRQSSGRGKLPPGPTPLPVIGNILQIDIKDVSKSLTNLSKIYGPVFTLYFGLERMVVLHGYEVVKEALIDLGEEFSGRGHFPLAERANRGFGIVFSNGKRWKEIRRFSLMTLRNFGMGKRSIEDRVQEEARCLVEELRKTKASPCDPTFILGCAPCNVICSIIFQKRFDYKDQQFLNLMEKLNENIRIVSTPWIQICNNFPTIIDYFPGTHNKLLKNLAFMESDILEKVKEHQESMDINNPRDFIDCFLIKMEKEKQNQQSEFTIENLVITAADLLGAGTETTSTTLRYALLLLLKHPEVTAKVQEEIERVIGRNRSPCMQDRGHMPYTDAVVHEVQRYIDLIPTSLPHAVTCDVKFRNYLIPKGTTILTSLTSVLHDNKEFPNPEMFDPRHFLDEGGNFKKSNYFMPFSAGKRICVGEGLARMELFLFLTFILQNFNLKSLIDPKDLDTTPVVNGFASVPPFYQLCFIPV
Chain of G-protein coupled receptor 55 (Q9Y2T6 whole entry): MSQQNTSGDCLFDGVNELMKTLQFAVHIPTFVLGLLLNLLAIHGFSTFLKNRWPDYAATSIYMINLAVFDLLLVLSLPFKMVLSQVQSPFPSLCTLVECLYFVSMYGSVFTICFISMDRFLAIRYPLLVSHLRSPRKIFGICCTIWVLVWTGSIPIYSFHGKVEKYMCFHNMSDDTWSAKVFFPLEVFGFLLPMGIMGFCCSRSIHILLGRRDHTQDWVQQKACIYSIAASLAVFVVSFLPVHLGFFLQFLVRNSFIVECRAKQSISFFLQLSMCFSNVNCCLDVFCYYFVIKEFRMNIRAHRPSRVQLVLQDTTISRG
Chain of Bcl-2-like protein 10 (Q9HD36 whole entry): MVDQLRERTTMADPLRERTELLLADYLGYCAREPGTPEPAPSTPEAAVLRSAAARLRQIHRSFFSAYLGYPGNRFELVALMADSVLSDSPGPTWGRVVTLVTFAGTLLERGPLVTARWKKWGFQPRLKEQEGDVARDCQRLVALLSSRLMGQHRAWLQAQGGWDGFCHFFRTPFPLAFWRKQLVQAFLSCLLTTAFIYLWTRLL
Chain of Sphingosine 1-phosphate receptor 2 (O95136 whole entry): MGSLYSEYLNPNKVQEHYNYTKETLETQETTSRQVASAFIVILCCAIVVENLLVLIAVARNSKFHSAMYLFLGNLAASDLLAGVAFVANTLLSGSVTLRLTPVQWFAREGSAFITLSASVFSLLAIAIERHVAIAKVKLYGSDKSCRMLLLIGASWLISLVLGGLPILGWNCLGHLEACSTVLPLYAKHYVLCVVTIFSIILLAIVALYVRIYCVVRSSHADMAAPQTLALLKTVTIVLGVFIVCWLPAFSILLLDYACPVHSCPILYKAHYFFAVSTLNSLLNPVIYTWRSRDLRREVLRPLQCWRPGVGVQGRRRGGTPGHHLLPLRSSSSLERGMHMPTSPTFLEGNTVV
Chain of Cytochrome P450 3A4 (P08684 whole entry): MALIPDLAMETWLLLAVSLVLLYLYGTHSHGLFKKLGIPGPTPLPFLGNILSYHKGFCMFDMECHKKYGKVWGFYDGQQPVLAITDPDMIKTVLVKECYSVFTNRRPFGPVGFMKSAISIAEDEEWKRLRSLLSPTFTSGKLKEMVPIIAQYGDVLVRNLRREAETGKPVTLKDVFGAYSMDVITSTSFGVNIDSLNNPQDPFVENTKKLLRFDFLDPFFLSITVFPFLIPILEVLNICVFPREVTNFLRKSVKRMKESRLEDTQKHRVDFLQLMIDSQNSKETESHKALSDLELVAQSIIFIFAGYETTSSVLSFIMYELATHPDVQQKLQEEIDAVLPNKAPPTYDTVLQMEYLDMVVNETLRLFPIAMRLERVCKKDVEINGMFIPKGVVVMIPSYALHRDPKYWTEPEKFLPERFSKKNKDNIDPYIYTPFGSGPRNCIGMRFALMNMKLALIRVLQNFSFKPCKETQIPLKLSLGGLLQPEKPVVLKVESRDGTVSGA

**Q.** For `Cc1ccc(-[n+]2c(-c3ccc(Br)cc3)cn3c2CCc2ccc4cccnc4c2-3)cc1`, which IC50 [1] is on record?
**A.** 4.28 µM (active)

**Q.** And the IC50 (Bcl-2-like protein 10)?
**A.** 41.4 µM (active)

**Q.** And the EC50 [2]?
**A.** 6.51 µM (active)

**Q.** And the EC50 (BJ [3])?
**A.** 0.649 µM (inconclusive)

**Q.** What about the EC50 (Streptokinase A) of the same compound?
**A.** 6.5 µM (active)

**Q.** What about the EC50 (BJ [4]) of the same compound?
**A.** 1.69 µM (inconclusive)

**Q.** And the EC50 (BJ [5])?
**A.** 2.98 µM (inconclusive)

**Q.** What about the EC50 [6] of the same compound?
**A.** 3.51 µM (active)

**Q.** What about the EC50 (Streptococcus) of the same compound?
**A.** > 50 µM (not active)

**Q.** And the IC50 (Exodeoxyribonuclease V)?
**A.** 28.4 µM (inactive)

**Q.** What about the IC50 [7] of the same compound?
**A.** 16.9 µM (inactive)

**Q.** What about the AC50 (Cytochrome P450 2C19) of the same compound?
**A.** 28.2 µM (inconclusive)

**Q.** And the AC50 (INS1)?
**A.** 0.412 µM (active)

**Q.** What about the AC50 (Cytochrome P450 1A2) of the same compound?
**A.** 25.1 µM (inconclusive)

**Q.** And the AC50 (Cytochrome P450 3A4)?
**A.** 4.47 µM (inconclusive)

**Q.** Which results are given for `O=C(CCCN1C(=O)/C(=C/c2ccc3c(c2)OCO3)SC1=S)Nc1cccc(C(=O)O)c1`?
**A.** IC50 [8]: 0.803 µM (active); EC50 [9]: 10.2 µM (active); IC50 [10]: 1.89 µM (active); EC50 [11]: 17.5 µM (active); EC50 [12]: > 120 µM (not active); IC50 [13]: 37.4 µM (active); IC50 [14]: > 100 µM (inactive); IC50 [15]: 2.47 µM (active); IC50 [16]: 62.7 µM (active); IC50 [17]: > 32 µM (inactive)

**Q.** For `CN(C(=O)c1ccc(NC(=O)Cc2ccc(NC(=O)C3CCN(C(=O)C4CC4)CC3)cc2)cc1)C1CC1`, which AC50 [18] is on record?
**A.** 17.8 µM (active)

**Q.** And the IC50 [19]?
**A.** 9.39 µM (active)
